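Five compound concentrations were applied to cells in 96-well plates for 48 hours; endpoints were derived by simple linear interpolation of the resulting dose-response curve. Abbreviation: GI50, concentration required for 50% inhibition of growth.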 Active and inactive are the calls of the source. Rule as the data show it: active = GI50 up to about 1.1 µM and inactive = higher.
How the values were obtained:
Assay in all cases: DTP human tumour cell line panel, 48 h
[1] = tested on: DLD-1
[2] = tested on: DMS-114
[3] = tested on: DMS-273
[4] = tested on: HL-60
[5] = tested on: IGROV-1
[6] = tested on: K562
[7] = tested on: Malme-3M
[8] = tested on: OVCAR-5
[9] = tested on: SF-268
[10] = tested on: SK-MEL-5
[11] = tested on: SR
[12] = tested on: UACC-257
[13] = tested on: A498
[14] = tested on: CAKI-1
[15] = tested on: BT-549
[16] = tested on: DU-145
[17] = tested on: Hs-578T
[18] = tested on: MDA-MB-231
[19] = tested on: PC-3

Measured: GI50

Cc1ccccc1N(CCC#N)C1=NN(C(=O)CC(=O)Nc2ccc(Cl)cc2)C(c2ccccc2)C1 (configuration not stated)
inactive: [1] > 100 µM | [2] > 100 µM | [3] > 100 µM | [4] > 100 µM | [5] > 100 µM | [6] > 100 µM | [7] > 100 µM | [8] > 100 µM | [9] > 100 µM | [10] > 100 µM | [11] > 100 µM | [12] > 100 µM

CN(C)C1(C#N)CCC2(CC1)OCCO2
inactive: [13] > 100 µM | [14] > 100 µM | [3] > 100 µM | [4] > 100 µM | [5] > 100 µM | [6] > 100 µM | [7] > 100 µM | [8] > 100 µM | [9] > 100 µM | [10] > 100 µM | [11] > 100 µM | [12] > 100 µM

O=C(CNc1nncs1)NO
inactive: [13] > 100 µM | [1] > 100 µM | [2] 54.3 µM | [3] > 100 µM | [4] > 100 µM | [5] > 100 µM | [6] > 100 µM | [7] > 100 µM | [8] > 100 µM | [9] > 100 µM | [12] > 100 µM

Cc1cc(=O)[nH]c2cc(NC(=O)C(CCCNC(=N)N)NC(=O)OCc3ccccc3)ccc12 (configuration not stated)
inactive: [13] > 100 µM | [15] > 100 µM | [14] > 100 µM | [16] > 100 µM | [4] > 100 µM | [17] > 100 µM | [5] > 100 µM | [6] > 100 µM | [18] > 100 µM | [7] > 100 µM | [8] > 100 µM | [19] > 100 µM | [9] > 100 µM | [10] > 100 µM | [11] > 100 µM | [12] > 100 µM

CC/C(Cl)=N\OC(=O)Nc1ccc(F)c([N+](=O)[O-])c1
inactive: [13] 19.9 µM | [15] 16.7 µM | [14] 2.85 µM | [16] 19.5 µM | [4] 2.39 µM | [17] 17.4 µM | [5] 17.9 µM | [6] 3.05 µM | [18] 18.2 µM | [7] 2.13 µM | [8] 22.7 µM | [19] 17.3 µM | [9] 16.9 µM | [10] 12.4 µM | [11] > 39.5 µM | [12] 17.6 µM

COC(=O)c1c(OC(C)=O)ccc2c1c1c(OC(C)=O)c3ccccc3c(OC(C)=O)c1n2Cc1ccccc1
inactive: [13] 13.7 µM | [15] 4.76 µM | [14] 9.62 µM | [16] 11.1 µM | [4] 3.33 µM | [17] 16.9 µM | [5] 4.09 µM | [6] 5.33 µM | [18] 4.09 µM | [7] 7.8 µM | [8] 7.46 µM | [19] 1.55 µM | [9] 3.44 µM | [10] 3.02 µM | [11] 1.64 µM | [12] 16.3 µM

C[N+]12CCCCC1C(CN1C(=O)Cc3c4ccccc4c(c4ccccc34)CC1=O)CCC2 (configuration not stated)
inactive: [13] > 100 µM | [15] > 100 µM | [14] > 100 µM | [16] > 100 µM | [4] > 100 µM | [17] > 100 µM | [5] > 100 µM | [6] > 100 µM | [18] > 100 µM | [7] > 100 µM | [8] > 100 µM | [19] > 100 µM | [9] > 100 µM | [10] > 100 µM | [11] > 100 µM | [12] > 100 µM

COC1=CC(=O)C2C(C1=O)[C@@H]1c3ccccc3OC[C@H]21 (some centres not stated)
inactive: [13] > 100 µM | [14] > 100 µM | [1] > 100 µM | [2] > 100 µM | [3] > 100 µM | [4] > 100 µM | [6] > 100 µM | [7] > 100 µM | [8] > 100 µM | [9] > 100 µM | [10] > 100 µM

CCC/C(Cl)=N\OC(=O)Nc1ccc(Br)cc1
inactive: [13] 16.9 µM | [15] 17.7 µM | [14] 4.36 µM | [16] 13.8 µM | [4] 1.99 µM | [17] 21.1 µM | [5] 12.8 µM | [6] 1.94 µM | [18] 16.9 µM | [7] 5.73 µM | [8] 13.9 µM | [19] 14.7 µM | [9] 17.7 µM | [10] 14.6 µM | [11] 5.68 µM | [12] 13.5 µM

CC1=NN(c2ccccc2)C(=O)C1/N=N/c1ccc([As](=O)(O)O)c(O)c1 (configuration not stated)
inactive: [13] > 100 µM | [15] > 100 µM | [14] > 100 µM | [16] > 100 µM | [4] 87.1 µM | [17] > 100 µM | [5] > 100 µM | [6] > 100 µM | [18] > 100 µM | [7] > 100 µM | [8] > 100 µM | [19] > 100 µM | [9] > 100 µM | [10] > 100 µM | [11] > 100 µM | [12] > 100 µM

N=C(N)NS(=O)(=O)c1ccc(NCc2c3ccccc3[n+]([O-])c3ccccc23)cc1
inactive: [13] 13.6 µM | [14] 21.3 µM | [1] 28.2 µM | [2] 10.4 µM | [3] 9.35 µM | [4] 6.08 µM | [5] 19.8 µM | [6] 25.7 µM | [7] 20 µM | [8] > 100 µM | [9] 11.8 µM | [10] 14 µM | [12] 74.6 µM

O=C1N/C(=N/N=C/c2ccccc2)N/C1=C\c1cccs1
inactive: [13] 13 µM | [15] 15.2 µM | [14] 16.7 µM | [16] 18.5 µM | [4] 12.3 µM | [17] 2.77 µM | [5] 14.5 µM | [6] 12.2 µM | [18] 18.6 µM | [7] 8.99 µM | [8] 28.6 µM | [19] 10 µM | [9] 9.89 µM | [10] 7.53 µM | [11] 28.2 µM | [12] 30.5 µM

C=C1C(=O)[C@]23C[C@H]1C[C@@H](O)[C@H]2[C@]1(COC3=O)[C@@H](OC(C)=O)CC[C@@](C)(COC(C)=O)[C@H]1C=O [LOXOTHYRIN A]
inactive: [13] > 50 µM | [15] 23.7 µM | [14] 9.38 µM | [16] > 50 µM | [4] 8.59 µM | [17] 3.97 µM | [5] > 50 µM | [6] 6.97 µM | [18] > 50 µM | [7] 11.4 µM | [8] > 50 µM | [19] > 50 µM | [9] 13.8 µM | [10] > 50 µM | [11] 28.4 µM | [12] > 50 µM
